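Tested at 5 concentrations; 48 h exposure; 96-well plates; endpoints linearly interpolated, else capped at highest concentration. TGI is the concentration that stops growth completely.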
Columns and labels:
Experiment in all cases: growth of human tumour cells (NCI), 48 h
SK-MEL-28 melanoma = system: SK-MEL-28 melanoma
SW-620 colon = system: SW-620 colon
UACC-257 melanoma = system: UACC-257 melanoma
HCT-15 colon = system: HCT-15 colon
MALME-3M melanoma = system: MALME-3M melanoma
OVCAR-3 ovarian = system: OVCAR-3 ovarian
NCI-H460 lung = system: NCI-H460 lung
COLO 205 colon = system: COLO 205 colon
ACHN renal = system: ACHN renal
UO-31 renal = system: UO-31 renal
IGROV1 ovarian = system: IGROV1 ovarian
TK-10 renal = system: TK-10 renal
NCI-H522 lung = system: NCI-H522 lung
EKVX NSCLC = system: EKVX NSCLC
RXF 393 renal = system: RXF 393 renal
UACC-62 melanoma = system: UACC-62 melanoma
MDA-MB-231 breast = system: MDA-MB-231 breast
MCF7 breast = system: MCF7 breast
NCI/ADR-RES ovarian = system: NCI/ADR-RES ovarian

SMILES	TGI (SK-MEL-28 melanoma)	TGI (SW-620 colon)	TGI (UACC-257 melanoma)	TGI (HCT-15 colon)	TGI (MALME-3M melanoma)	TGI (OVCAR-3 ovarian)	TGI (NCI-H460 lung)	TGI (COLO 205 colon)	TGI (ACHN renal)	TGI (UO-31 renal)	TGI (IGROV1 ovarian)	TGI (TK-10 renal)	TGI (NCI-H522 lung)	TGI (EKVX NSCLC)	TGI (RXF 393 renal)	TGI (UACC-62 melanoma)	TGI (MDA-MB-231 breast)	TGI (MCF7 breast)	TGI (NCI/ADR-RES ovarian)
O=C(O)Cn1c(=O)[nH]c(=O)c2[nH]cnc21	> 100 µM	> 100 µM	> 100 µM	> 100 µM	> 100 µM	> 100 µM	> 100 µM	> 100 µM	> 100 µM	> 100 µM	> 100 µM	> 100 µM	> 100 µM	> 100 µM	> 100 µM	> 100 µM			
C/C(CC(=O)NC1=CC=C(NC(=O)C/C(C)=N\Nc2ccccc2)CC1)=N/Nc1ccccc1	> 100 µM		> 100 µM	> 100 µM	> 100 µM	> 100 µM	> 100 µM	> 100 µM	> 100 µM	> 100 µM	> 100 µM	> 100 µM	> 100 µM	> 100 µM	> 100 µM	> 100 µM			
COc1cc(C)c(C)c(OC(=O)c2c(C)c(C)c(OC)c(C)c2OC)c1C	> 100 µM	36 µM	78.6 µM	18.5 µM	65.7 µM	7.15 µM	20.4 µM	15.7 µM	> 100 µM	> 100 µM	> 100 µM	> 100 µM	4.71 µM	98.3 µM	39.7 µM	> 100 µM			
COC(=O)c1ccccc1NC(=O)C(=O)CC(=O)CC(c1ccccc1)c1c(O)c2ccccc2oc1=O (stereo not given)	> 100 µM	> 100 µM	> 100 µM		> 100 µM	> 100 µM	> 100 µM	> 100 µM	> 100 µM	> 100 µM	> 100 µM	> 100 µM	> 100 µM	> 100 µM	> 100 µM	> 100 µM			
O=[N+]([O-])C(=C(Nc1ccccc1)Nc1ccccc1)/C(Cl)=C(\Cl)Br	29.9 µM	18.8 µM	27.8 µM	24.2 µM	37.1 µM	19.4 µM	54.5 µM		25 µM	21.7 µM			8.72 µM	32.1 µM			29 µM	33.9 µM	29.7 µM
CC(C)(Oc1ccc2c(=O)cc(-c3ccccc3)oc2c1)C(=O)Nc1c(Cl)cccc1Cl	> 100 µM	> 100 µM	> 100 µM	> 100 µM	> 100 µM	> 100 µM	> 100 µM			> 100 µM	> 100 µM	> 100 µM	> 100 µM	> 100 µM	30.2 µM	> 100 µM			
CC(=O)N/N=C1/CC[C@@]2(C)C(=CC[C@H]3C4CCC(C(C)CCCC(C)C)[C@@]4(C)CCC32)C1(C)C (stereo not given in full)	> 100 µM	> 100 µM	> 100 µM	> 100 µM	> 100 µM	> 100 µM	> 100 µM	> 100 µM	> 100 µM	> 100 µM	> 100 µM	> 100 µM	> 100 µM	> 100 µM		> 100 µM		> 100 µM	> 100 µM
CCc1cccc(CC)c1NC(=O)C1=C(C)NC(C)=C(C(=O)Nc2c(CC)cccc2CC)C1c1ccc2c(c1)OCO2	35 µM	31.5 µM	35.1 µM	26.8 µM	29.7 µM	27.2 µM	28.6 µM	26.2 µM	39 µM	30.8 µM	44.2 µM	> 100 µM	27.2 µM	38.3 µM		25.6 µM			
COC(=O)C1N=CSCC1(C)O (stereo not given)	> 100 µM	> 100 µM	> 100 µM	> 100 µM	> 100 µM	> 100 µM	> 100 µM	> 100 µM	> 100 µM	> 100 µM	> 100 µM	> 100 µM		> 100 µM	> 100 µM	> 100 µM			
CC(=O)NC(CCCNC(=O)NCCCl)C(=O)NCc1ccccc1 (stereo not given)	> 100 µM	> 100 µM	> 100 µM	> 100 µM	> 100 µM	> 100 µM	> 100 µM	> 100 µM	> 100 µM	> 100 µM		> 100 µM	> 100 µM	> 100 µM	> 100 µM	> 100 µM			
COc1ccc(NC(=O)CC(=O)N/N=C/c2ccc(N(CCC#N)S(=O)(=O)c3ccccc3)cc2)cc1	> 100 µM	> 100 µM	> 100 µM	> 100 µM	> 100 µM	> 100 µM	> 100 µM	> 100 µM	> 100 µM	> 100 µM	> 100 µM	> 100 µM	> 100 µM	> 100 µM		> 100 µM			
Brc1ccc2c(c1)C1C(CO2)C(c2ccccc2)=NN1c1ccccc1 (stereo not given)	> 100 µM	> 100 µM	> 100 µM		> 100 µM	> 100 µM	> 100 µM	> 100 µM	> 100 µM	> 100 µM	> 100 µM	> 100 µM		> 100 µM	> 100 µM				

From PubChem BioAssay (NCI)
